# Laboratory results reported in US20230321074A1, “USE OF CHIAURANIB IN COMBINATION WITH IMMUNE CHECKPOINT INHIBITOR IN ANTITUMOR THERAPY” (SHENZHEN CHIPSCREEN BIOSCIENCES, CO., LTD., priority 2020, published 2023).
# “And” between values parts separate entries of the source, which are not always exact repeats. Equal values may be shown once. “Also recorded” adds a separate entry of the source.
# Assays:
# [1] = Body weight and tolerability in B-hPD-1/hPD-L1 humanized mice transplanted with MC38-hPD-L1; type: in vivo, mouse; conditions: for Body weight change (g) Day 27 of administration / Body weight (g) Day 27 of administration in groups / Body weight (g) before administration: MC38-hPD-L1 model; for Body weight (g) Day 27 of administration in groups / Body weight (g) before administration: mean ± standard error; for Body weight (g) before administration: baseline; for toxic side effects on animals / safety: at test doses: chiauranib 2.5 mg/kg, reference PD-L1 antibody 1 mg/kg and 3 mg/kg
# Description: (§1) A certain number of cells were cultured and collected, the MC38-hPD-L1 cells resuspended in PBS were subcutaneously inoculated into B-hPD-1/hPD-L1 humanized mice on the right side at a concentration of 5×10^5 cells/0.1 mL and a dose of 0.1 mL/mouse. After an average tumor volume reached about 104 mm^3, appropriate mice were selected according to tumor volume and body weight, and uniformly divided into 6 experimental groups, 8 mice per group, and administration was carried out on the day of grouping.
# [2] = tested on: MC38-hPD-L1 colon cancer cells; test: Efficacy on B-hPD-1/hPD-L1 humanized mouse MC38-hPD-L1 colon cancer model; type: in vivo; conditions: for Tumor volume (mm^3) Day 27 of administration in groups / Tumor volume (mm^3) before administration / Tumor weight: mean ± standard error; for inhibitory effect on growth of MC38-hPD-L1 subcutaneously transplanted tumors (experiment summary): at test doses: chiauranib 2.5 mg/kg; for inhibitory effect on growth of MC38-hPD-L1 subcutaneously transplanted tumors (experiment summary) / inhibitory effect on growth of MC38-hPD-L1 subcutaneously transplanted tumors (tumor volume) / inhibitory effect on growth of MC38-hPD-L1 subcutaneously transplanted tumors (tumor weight): reference PD-L1 antibody 1 mg/kg and 3 mg/kg; for Tumor volume (mm^3) before administration: baseline; for inhibitory effect on growth of MC38-hPD-L1 subcutaneously transplanted tumors (tumor volume): day 27, P<0.05 vs control; for inhibitory effect on growth of MC38-hPD-L1 subcutaneously transplanted tumors (tumor volume) / inhibitory effect on growth of MC38-hPD-L1 subcutaneously transplanted tumors (tumor weight): chiauranib 2.5 mg/kg; for inhibitory effect on growth of MC38-hPD-L1 subcutaneously transplanted tumors (tumor weight) / Tumor weight: end of experiment; for inhibitory effect on growth of MC38-hPD-L1 subcutaneously transplanted tumors (tumor weight): P<0.05 vs control; for Tumor weight / TGITV (%) / TGITW (%): day 27; for TGITV (%): tumor inhibition rate by tumor volume; for TGITW (%): tumor weight inhibition
# Description: Mouse colon cancer MC38 cells were purchased from Shunran Biology, cultured in an incubator under 5% CO2 at 37° C., and a medium was Dulbecco's Modified Eagle's Medium containing 10% inactivated fetal bovine serum. Biocytogen carried out genetic modification on the MC38 cells to enable the MC38 cells to overexpress human PD-L1, and knocked out mouse PD-L1, and the cells were named MC38-hPD-L1 cells. A reference PD-L1 antibody used in the experiment was constructed and produced by the in-house laboratory according to a sequence of the marketed antibody drug MPDL3280A.
# as §1
# Results were recorded, tumor inhibition rates (TGITV) were calculated, and statistical analysis between groups was carried out according to tumor volume.
# [3] = cited from earlier work
# [4] = tested on: spleen lymphocyte subsets CD4 and CD8; test: Proportions of spleen lymphocyte subsets in CT-26 tumor-bearing mice (flow cytometry); type: in vivo, mouse; conditions: CT-26 tumor-bearing Balb/c mice; chiauranib 20 mg/kg intragastric once a day; PD-1 antibody 10 mg/kg i.p. twice a week; after last administration on 14th day
# Description: 8 days after cell inoculation, tumors grew to an average volume of about 100 mm^3, and the tumor-bearing mice were randomly divided into four groups (9 mice per group), that is, a solvent control group, a chiauranib group (20 mg/kg, intragastric administration, once a day), a PD-1 antibody group (10 mg/kg, intraperitoneal injection, twice a week), and a chiauranib and PD-1 antibody combined administration group, marked, raised in separate cages, administered daily in groups, and observed for tumor formation. The longest diameter (length) and the widest diameter (width) perpendicular to the longest diameter of the tumor was measured by using a vernier caliper every 2 days, and the tumor volume was calculated according to a formula: TS=length×(width)^2/2, and recorded. The mice were subjected to intragastric administration once a day regularly, and after the last administration on the 14th day, the mice were sacrificed to take the spleens and make a single cell suspension. 1×10^6 spleen cells were taken and stained with fluorescein labelled anti-CD4 and CD8 antibodies (1:200) at 4° C. for 30 min. After being washed, the cells were resuspended in PBS, and detected by using a flow cytometer FACSCanto II. […]
# [5] = Body weight, deaths and tolerability in H22 tumor-bearing BALB/c mice; type: in vivo; conditions: H22 model
# [6] = tested on: colonic cancer cell line CT-26; test: Efficacy on tumor Balb/c mouse models inoculated with colonic cancer cell line CT-26 (tumor volume); type: in vivo; conditions: CT-26 in Balb/c mice; chiauranib 20 mg/kg intragastric once a day; PD-1 antibody 10 mg/kg i.p. twice a week; vs solvent control
# Description: A large number of CT-26 cells were cultured and kept in a logarithmic growth state. After the number of cells reached a required level, the cells were digested and collected by trypsin, thoroughly washed twice with a large amount of PBS to remove trypsin and serum components, centrifuged at room temperature at 800 rpm for 10 min, and a supernatant was discarded. The cells were resuspended in DMEM without FBS, and the cell concentration was adjusted to 5×10^6 cells/mL.
# Under sterile conditions, the cell suspension was injected subcutaneously into the back of Balb/c mice at 100 μL/injection, one injection per mouse. […]
# 8 days after cell inoculation, tumors grew to an average volume of about 100 mm^3, and the tumor-bearing mice were randomly divided into four groups (9 mice per group), that is, a solvent control group, a chiauranib group (20 mg/kg, intragastric administration, once a day), a PD-1 antibody group (10 mg/kg, intraperitoneal injection, twice a week), and a chiauranib and PD-1 antibody combined administration group, marked, raised in separate cages, administered daily in groups, and observed for tumor formation. The longest diameter (length) and the widest diameter (width) perpendicular to the longest diameter of the tumor was measured by using a vernier caliper every 2 days, and the tumor volume was calculated according to a formula: TS=length×(width)^2/2, and recorded. […]
# [7] = tested on: mouse liver cancer H22 cells; test: Efficacy on female BALB/c mouse models subcutaneously transplanted with mouse liver cancer H22 cell line; type: in vivo
# Description: Mouse liver cancer H22 cells (purchased from CCTCC; cell No. TC-00011) were cultured in an RPMI-1640 medium (purchased from Gibco) containing 10% fetal bovine serum. H22 cells in exponential growth phase were collected, resuspended in PBS to an appropriate concentration, and subcutaneously inoculated into mice. Female mice were subcutaneously inoculated with 1×10^6 H22 cells on the right front side. After tumors grew to an average volume of 104 mm^3, the mice were randomly grouped (see Table 1) according to the tumor size, administration was carried out on the day of grouping, and the day of inoculation of tumor cells was defined as day 0.
# On the 19th day of the experiment (day 15 of administration in groups), an average tumor volume of the solvent control group was measured to be 2060.99 mm^3, the experiment was completed, photos of the tumor-bearing mice were taken, the tumors were taken out and weighed, and photos of the tumors were taken. A formula for calculating tumor volume: tumor volume (mm^3)=1/2×(a×b^2) (where, a represents a long diameter, and b represents a short diameter).
# [8] = Reference PD-L1 antibody 3 mg/kg i.p. Q3D, chiauranib 2.5 mg/kg p.o. QD in the combination
# [9] = groups G2, G3, G5 (chiauranib 2.5 mg/kg; Reference PD-L1 antibody 1 mg/kg)
# [10] = groups G4, G6 (Reference PD-L1 antibody 3 mg/kg; chiauranib 2.5 mg/kg in the combination)
# [11] = chiauranib 2.5 mg/kg p.o. QD, Reference PD-L1 antibody 1 mg/kg i.p. Q3D
# [12] = chiauranib 5 mg/kg p.o. QD, mouse PD-1 antibody 5 mg/kg i.p. BIW
Compound,"Body weight (g) before administration [1, 9]","Body weight change (g) Day 27 of administration [1, 11]","Body weight (g) Day 27 of administration in groups [1, 11]",toxic side effects on animals / safety [1],inhibitory effect on growth of MC38-hPD-L1 subcutaneously transplanted tumors (experiment summary) [2],"Tumor volume (mm^3) before administration [2, 9]","Tumor volume (mm^3) Day 27 of administration in groups [2, 11]",inhibitory effect on growth of MC38-hPD-L1 subcutaneously transplanted tumors (tumor volume) [2],inhibitory effect on growth of MC38-hPD-L1 subcutaneously transplanted tumors (tumor weight) [2],"Tumor weight [2, 11]","TGITV (%) [2, 11]","TGITW (%) [2, 11]",other results
Reference PD-L1 antibody: constructed and produced by the in-house laboratory according to a sequence of the marketed antibody drug MPDL3280A,21.6 ± 0.3 g,+3.8 g,25.4 ± 0.4 g,do not produce toxic side effects to animals; also recorded: do not produce toxic and side effects on animals,significant inhibitory effects,104 ± 4 mm^3,1469 ± 144 mm^3,significant inhibitory effects,significant inhibitory effects,1.316 ± 0.106 g,38.5%,39.8%,"Body weight change (g) Day 27 of administration [1, 8]: +3.7 g; Body weight (g) Day 27 of administration in groups [1, 8]: 25.0 ± 0.5 g; Body weight (g) before administration [1, 10]: 21.3 ± 0.5 g; Tumor volume (mm^3) Day 27 of administration in groups [2, 8]: 1207 ± 195 mm^3; Tumor volume (mm^3) before administration [2, 10]: 104 ± 3 mm^3; Tumor weight [2, 8]: 1.182 ± 0.199 g; TGITV (%) [2, 8]: 50.3%; TGITW (%) [2, 8]: 45.9%"
"avelumab+BSC: PD-L1 antibody drug avelumab (Bavencio, Pfizer and Merck KGaA) plus best supportive care",–,–,–,–,–,–,–,–,–,–,–,–,"median OS ([3]; patients with advanced UC after platinum-based chemotherapy): 21.4 months; overall survival (OS) hazard ratio [HR] ([3]; vs BSC alone, 95% CI 0.56, 0.86, 1-sided p=0.0005, all enrolled patients): 0.69; increase of OS ([3]; vs BSC group): more than 7 months"
"COc1ccc2c(Oc3ccc4c(C(=O)Nc5ccccc5N)cccc4c3)ccnc2c1 [chiauranib, Chiauranib]",21.1 ± 0.3 g,+3.1 g,24.2 ± 0.6 g,do not produce toxic side effects to animals; also recorded: do not produce toxic and side effects on animals,significant inhibitory effects,104 ± 4 mm^3,1021 ± 158 mm^3,significant inhibitory effects,significant inhibitory effects,0.837 ± 0.108 g,58.6%,61.7%,"average proportion of spleen lymphocyte subset CD4 [4]: 9.9%; average proportion of spleen lymphocyte subset CD8 [4]: 6.1%; Body weight change rate (%) Day 19 [5, 12]: 5.59%; Number of animals of experiment at the beginning/end [5, 12]: 10/10; Average body weight (g) Day 5 ([5]; day of grouping, baseline, mean ± standard error): 21.3 ± 0.3 g; Average body weight (g) Day 19 ([5]; end of experiment, chiauranib 5 mg/kg p.o. QD, mouse PD-1 antibody 5 mg/kg i.p. BIW, mean ± standard error): 22.4 ± 0.3 g; relative tumor inhibition rate [6]: 39%; TGI (%) Day 19 (relative tumor inhibition rate) ([7]; (1 - T/C) x 100%, chiauranib 5 mg/kg p.o. QD, mouse PD-1 antibody 5 mg/kg i.p. BIW): 26%; T/C (%) Day 19 ([7]; TRTV/CRTV x 100%, chiauranib 5 mg/kg p.o. QD, mouse PD-1 antibody 5 mg/kg i.p. BIW): 74%; Tumor volume (mm^3) Day 19 ([7]; day 15 of administration, chiauranib 5 mg/kg p.o. QD x 15 days, mouse PD-1 antibody 5 mg/kg i.p. BIW x 5, mean ± standard error): 1527.40 mm^3 and 1527.40 ± 145.56 mm^3; Tumor volume (mm^3) Day 5 ([7]; day of grouping, baseline before treatment, mean ± standard error): 104.09 ± 2.73 mm^3; RTV ([7]; relative tumor volume Vt/V0, Day 19, chiauranib 5 mg/kg p.o. QD, mouse PD-1 antibody 5 mg/kg i.p. BIW): 14.51"
